“And” between values parts separate entries of the source, which are not always exact repeats. Identical values can stand only once.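 96-well plates; 48 h exposure; 5 concentrations. Endpoints by linear interpolation between flanking doses. Not reached: highest tested concentration assigned. Here, GI50 denotes the concentration required for 50% inhibition of growth. The concentration for full growth arrest is given as TGI.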
Legend:
Experiment in all cases: NCI anticancer screen, dose series, 48 h
[1] = tested on: M19-MEL melanoma
[2] = tested on: T-47D breast
[3] = tested on: MDA-N
[4] = tested on: RXF-631 renal
[5] = tested on: SNB-78 CNS
[6] = tested on: HOP-18 NSCLC
[7] = tested on: DMS 114 small cell lung
[8] = tested on: KM20L2 colon
[9] = tested on: NCI/ADR-RES ovarian

CCCCC1N=CNc2c1ccc1c2[nH]c2ccccc21 (configuration not stated)
TGI [1]: 11.8 µM | TGI [2]: 3.2 µM | TGI [3]: 3.28 µM | TGI [4]: 5.97 µM | TGI [5]: 38.6 µM | TGI [6]: 22.5 µM | TGI [7]: 4.06 µM

O=[P+](O)c1cccnc1
TGI [1]: > 100 µM | TGI [4]: > 100 µM | TGI [5]: > 100 µM | TGI [7]: > 100 µM | TGI [8]: > 100 µM

O=C(O)C1C2CCC(O2)C1C(=O)NCc1cccnc1 (configuration not stated)
TGI [9]: > 100 µM | TGI [2]: > 100 µM | TGI [3]: > 100 µM

Cc1cc2c(C)nn(Cc3ccccc3Cl)c2c(C#N)c1C
TGI [1]: > 100 µM | TGI [4]: > 100 µM | TGI [6]: > 100 µM | TGI [8]: > 100 µM

Cn1cc(-c2ccc3nnc(C(F)(F)c4ccc5ncccc5c4)n3n2)cn1
GI50 [9]: 62.2 µM | TGI [9]: > 100 µM | GI50 [2]: 40.8 µM | TGI [2]: > 100 µM

C=C1CCC2(C(C)=O)COC1(C)O2 (configuration not stated)
TGI [1]: > 100 µM | TGI [6]: > 100 µM | TGI [7]: > 100 µM

CCCCCCn1c2c(c3c(O)cccc31)C(=O)c1ccccc1-2
GI50 [9]: 18 µM | TGI [9]: 33 µM | GI50 [2]: 41.4 µM | TGI [2]: > 100 µM

O=C1Nc2c(ccc(Cl)c2Cl)/C1=C\c1cc(C(F)(F)F)cc(C(F)(F)F)c1
GI50 [9]: 6.38 µM | TGI [9]: 14.8 µM | GI50 [2]: 2.5 µM | TGI [2]: 10.2 µM

CS(=O)(=O)c1ccc(-c2cnc(NCc3ccco3)n3cnnc23)cc1
GI50 [9]: > 100 µM | TGI [9]: > 100 µM | GI50 [2]: 47.8 µM | TGI [2]: > 100 µM

C1C[S][Ge]2([S]CCS1)[S]CCSCC[S]2
GI50 [1]: > 100 µM | TGI [1]: > 100 µM | GI50 [5]: > 100 µM | TGI [5]: > 100 µM | GI50 [7]: > 100 µM | TGI [7]: > 100 µM

COc1cc(/C=C2\CC3C4CCC5=CC(=O)CC[C@]5(C)C4CC[C@]3(C)C2=O)ccc1OCCN1CCCCC1 (some centres not stated)
GI50 [9]: 4.62 µM | TGI [9]: > 100 µM | GI50 [2]: 11.3 µM | TGI [2]: 41.9 µM

Cc1cc(C)c(C2=NO[C@@H]3C(=O)N(c4ccc(Cc5ccc(N6C(=O)[C@H]7C(c8c(C)cc(C)cc8C)=NO[C@H]7C6=O)cc5)cc4)C(=O)[C@H]23)c(C)c1
TGI [1]: > 100 µM | TGI [5]: > 100 µM | TGI [6]: > 100 µM | TGI [7]: > 100 µM | TGI [8]: > 100 µM

CCOC(=O)CP(=S)(S)c1ccccc1 (configuration not stated)
TGI [1]: > 100 µM | TGI [5]: > 100 µM | TGI [7]: > 100 µM | TGI [8]: > 100 µM

CSc1nc(SC)c2c(C)cn(C3OC(C)C(O)C(O)C3O)c2n1 (configuration not stated)
TGI [9]: > 100 µM | TGI [2]: 84.7 µM | TGI [3]: > 100 µM

COC(=O)C1=Cc2cn(S(=O)(=O)c3ccc(C)cc3)c3cccc(c23)C(C=C(C)C)N1C(C)=O (configuration not stated)
TGI [1]: > 100 µM | TGI [5]: > 100 µM | TGI [6]: > 100 µM | TGI [7]: > 100 µM | TGI [8]: > 100 µM

CN(CCCCN)c1ccc2c(=O)[nH][nH]c(=O)c2c1
TGI [1]: > 37 µM | TGI [5]: > 100 µM | TGI [6]: > 100 µM | TGI [7]: > 100 µM

O=C(c1ccccc1)c1c2n(c3c1cc(O)c1ccccc13)CCN2
GI50 [9]: 23.5 µM | TGI [9]: > 100 µM | GI50 [2]: 1.77 µM | TGI [2]: 3.99 µM

CN1c2ccccc2S(=O)(=O)n2c(COc3ccccc3)nnc21
TGI [9]: > 100 µM | TGI [2]: > 100 µM | TGI [3]: > 100 µM

Cc1cc(C)c(C(=O)/C(=C/c2ccccc2)c2ccccc2)c(C)c1
TGI [1]: > 100 µM | TGI [4]: > 100 µM | TGI [6]: > 100 µM | TGI [7]: > 100 µM | TGI [8]: > 100 µM

O=c1sc(-c2nc3ccccc3[nH]2)c(/N=C/c2ccccc2)n1-c1ccccc1
TGI [1]: > 100 µM | TGI [5]: > 100 µM | TGI [6]: > 100 µM

CN(CC1NCCCC1O)C12CC3CC(CC(C3)C1)C2 (configuration not stated)
TGI [1]: > 100 µM | TGI [6]: > 100 µM | TGI [7]: > 100 µM | TGI [8]: > 100 µM

CC(C)OC(=O)c1cccnc1/C=N/O
TGI [1]: > 100 µM | TGI [5]: > 100 µM | TGI [7]: > 100 µM | TGI [8]: > 100 µM

O=C(NCCCl)NCc1ccccc1
TGI [9]: > 100 µM | TGI [2]: > 100 µM | TGI [3]: > 100 µM

c1ccc(N2N=NC3C4CC(C5c6ccccc6C45)C32)cc1 (configuration not stated)
TGI [1]: 46.7 µM | TGI [4]: > 100 µM | TGI [5]: > 100 µM | TGI [7]: 47.5 µM | TGI [8]: > 100 µM

CNC(=O)c1cc(Oc2ccc3nc(NC(=O)Nc4cc(C(F)(F)F)cc(C(F)(F)F)c4)sc3c2)ccn1
GI50 [2]: 0.479 µM | TGI [2]: 2.3 µM

COc1cc(OC)c(/C=C/C(=O)c2c(O)cc(OC)c(C3CCN(C)CC3)c2OC)c(OC)c1
GI50 [2]: 1.76 µM | TGI [2]: 3.25 µM

CC(C)(N)C(=O)N[C@@H]1C(=O)N2[C@@H]1SC(C)(C)[C@@H]2C(=O)O
TGI [9]: > 100 µM | TGI [2]: > 100 µM | TGI [3]: > 100 µM

CC/C(=C(/CC)c1ccc(O)cc1)c1ccc(O)cc1
GI50 [9]: 3.09 µM | TGI [9]: 20.2 µM | GI50 [2]: 6.85 µM | TGI [2]: 47 µM

c1cnc2nc3n(c2c1)CSC3
TGI [1]: > 100 µM | TGI [5]: > 100 µM | TGI [7]: > 100 µM | TGI [8]: > 100 µM

Cc1ccnc(NC(c2ccccc2)c2ccc3cccnc3c2O)c1 (configuration not stated)
GI50 [9]: 2.47 µM | TGI [9]: 14.9 µM | GI50 [2]: 4.22 µM | TGI [2]: 35.1 µM

NCCCCCCCCCn1c2c(c3ccccc3c1=O)C(=O)c1ccccc1-2
GI50 [9]: 9.47 µM | TGI [9]: 22.4 µM | GI50 [2]: 9.33 µM | TGI [2]: 22 µM

COc1c(OC)c(OC)c(-c2cc(=O)c3c(OC)c(OC)c(OC)c(OC)c3o2)c(OC)c1OC
TGI [9]: 78.9 µM | TGI [2]: 47.9 µM | TGI [3]: > 100 µM

COc1ccc(/C=C/C(=O)c2ccccc2)cc1OC
GI50 [9]: 8.33 µM | TGI [9]: > 100 µM and 93.1 µM | GI50 [2]: 18.4 µM | TGI [2]: 48.7 µM and 60.8 µM | TGI [3]: 15.3 µM

[Au+].c1c[n-]cn1.c1ccc([PH+](c2ccccc2)c2ccccc2)cc1
GI50 [1]: 3.4 µM | TGI [1]: 11.9 µM | GI50 [9]: 32.9 µM | TGI [9]: > 100 µM | GI50 [2]: 2.02 µM | TGI [2]: 4.74 µM | GI50 [3]: 3.17 µM | TGI [3]: 12.9 µM | GI50 [5]: 7.57 µM | TGI [5]: > 45.2 µM | GI50 [6]: 2.08 µM | TGI [6]: 4.35 µM | GI50 [7]: 0.668 µM | TGI [7]: 1.91 µM | GI50 [8]: 21.9 µM | TGI [8]: 58.3 µM

COC(=O)c1cc2c(nc1C)-c1ccccc1OS2(=O)=O
TGI [1]: > 100 µM | TGI [4]: > 100 µM | TGI [5]: > 100 µM | TGI [7]: > 100 µM | TGI [8]: > 100 µM

From PubChem BioAssay (NCI)
